This note sets out measurements from patent US10370637B2, “Technology for sustaining pluripotency and improved growth of stem cells in culture” (The Regents of the University of California, priority 2015, dated 2019).

Experiment [1] relates to hPSC colonies. The conditions noted are these: Essential-8 + 10 mM NaOAc.3H2O vs Essential-8 alone.
Experiment [2] relates to human embryonic stem cells (hESC).
Excerpt: These are hallmarks of healthy pluripotent human embryonic stem cells (hESC) in culture. […] These are not normal pluripotent stem cell morphologies and are observed when colonies begin to differentiate.
In experiment [3] the test system is hESC colonies. The protocol:
Colonies were incubated in mTeSR or mTeSR plus varying concentrations of NaOAc.3H2O.

For experiment [4], the system named is hESC. The conditions noted are these: incubated in mTeSR plus NaOAc.3H2O, then transferred to differentiation medium. The method, then:
(6A) Spontaneous differentiation of hESC incubated in mTeSR only then transferred to differentiation medium. […] (6B) hESC incubated in mTeSR plus NaOAc.3H2O, then transferred to differentiation medium.
These colonies were labeled with an antibody to Pax6, a marker for ectodermal differentiation.

The test system of experiment [5] is H9 hESC. The conditions noted are these: H9 colony from another lab, mTeSR1 + 10 mM NaOAc.3H2O, 24 hours.
In experiment [6] the test system is human embryonic stem cells (hESC). The method, then: FIG. 2 is a panel showing that the addition of NaOc.3H2O to hPSC culture medium rescued human embryonic stem cell cultures, improved attachment/spreading, and decreased cell death. […] (2E) Comparison of hESC attachment in mTeSR1 or mTeSR1+10 mM NaOAc.3H2O, (2F) Spreading of colonies in mTeSR1 only is poor; colonies are elevated, not flat, (2G) Spreading of colonies in mTeSR1+10 mM NaOAc.3H2O is improved; colonies are flatter and spread faster. (2H-2M) StemCellQC™ time-lapse video bioinformatics analysis of colonies grown in mTeSR1 only or mTeSR1+10 mM NaOAc. Colonies cultured in mTeSR1+10 mM NaOAc grow faster (2H and 2I), are rounder (normal morphology) (2J), have better motility (2K and 2L), and have fewer dead cells (2M).
This is very important and may be a factor in preventing unwanted differentiation. FIGS. 2H-M show video bioinformatics analysis of live hESC growing in vitro. This analysis was done on time-lapse images of living cultures and allows quantitative comparison between cells grown in different media.
This is another data set of the same source.

Setting [7] is: mTeSR1 + 10 mM NaOAc vs mTeSR1 only.

Structures are written as SMILES. Like-named read-outs stand apart in the source and are kept apart here.

Take `CC(=O)[O-].O.O.O.[Na+]` [NaOAc.3H2O, sodium acetate trihydrate]: the colony morphology result in experiment [1] is “improved morphology”. For the same compound, the colony morphology result in experiment [2] (mTeSR + 1 mM NaOAc.3H2O) is given as “little effect on colony morphology”. The colony morphology result in experiment [2] (mTeSR + 5 or 10 mM NaOAc.3H2O) is “colony morphology was restored to normal”. In addition, the “passages without differentiation of colonies” value in experiment [2] (passaged in mTeSR with the NaOAc.3H2O supplement) is “over 20 times”. For the same compound, the “Oct 4 fluorescence, concentration comparison” value in experiment [3] (10 μM concentration) is on record as “Fluorescence was strongest”. Further, the Oct4A staining result in experiment [3] (mTeSR1 + 5 mM NaOAc) is “Positive Oct4A staining”. In experiment [3] (mTeSR1 + 10 mM NaOAc), the Oct4A staining entry is “Positive Oct4A staining” and the Sox2 staining result is listed as “Positive Sox2 staining”. Besides, the “Oct 4 labeling (biomarker for pluripotency)” value in experiment [3] (mTeSR plus varying concentrations of NaOAc.3H2O) is “bright labeling of Oct 4”. In addition, in experiment [4], the “Pax6 staining (ectodermal marker)” value was “stained positively for Pax6”. For the same compound, in experiment [5], the colony morphology result was “round morphology with smooth edges”. Also, in experiment [6] (setting [7]), the “brightness to area ratio (measurement of cell death)” value was “low brightness to area ratio”, the cell death entry was “Fewer cells died”, the colony motility result is given as “Motility was greater” and the growth rate result was “much faster”. Also, the “solidity (colony roundness)” value in experiment [6] (setting [7]) is given as “closer to 1”. Further, the “spreading of hESC colonies on the substrate” value in experiment [6] (mTeSR1 + 10 mM NaOAc.3H2O vs mTeSR1) is “spread faster on the substrate”. For the same compound, the “attachment of cells to their substrate” value in experiment [6] (mTeSR1 + 10 mM NaOAc.3H2O vs mTeSR1, modest but significantly different) is given as “enhanced the attachment of cells to their substrate”.
